Test results as given in ChEMBL document CHEMBL5104172, “Design, synthesis, and antibacterial activity of derivatives of Tryptophanyl-tRNA synthetase inhibitor indolmycin” (Eur J Med Chem, 2022).
Converted amounts (≈) assume the structure as drawn.

How the values were obtained:
Staphylococcus aureus [1] = assay: Antibacterial activity against methicillin-resistant Staphylococcus aureus MRSA17-5 measured by liquid dilution method; format: functional
[2] = tested on: Staphylococcus epidermidis; assay: Antibacterial activity against methicillin-sensitive Staphylococcus epidermidis MSSE17-3 measured by liquid dilution method; format: functional
[3] = tested on: Staphylococcus epidermidis; assay: Antibacterial activity against methicillin-resistant Staphylococcus epidermidis MRSE17-3 measured by liquid dilution method; format: functional
Staphylococcus aureus [4] = assay: Antibacterial activity against methicillin-resistant Staphylococcus aureus MRSA17-3 measured by liquid dilution method; format: functional
[5] = tested on: Staphylococcus epidermidis; assay: Antibacterial activity against methicillin-resistant Staphylococcus epidermidis MRSE17-2 measured by liquid dilution method; format: functional
Enterococcus faecalis [6] = assay: Antibacterial activity against Enterococcus faecalis ATCC 29212 measured by liquid dilution method; format: functional
Staphylococcus aureus [7] = assay: Antibacterial activity against methicillin-resistant Staphylococcus aureus MRSA17-2 measured by liquid dilution method; format: functional
Staphylococcus aureus [8] = assay: Antibacterial activity against methicillin-resistant Staphylococcus aureus MRSA17-6 measured by liquid dilution method; format: functional
[9] = tested on: Staphylococcus epidermidis; assay: Antibacterial activity against methicillin-sensitive Staphylococcus epidermidis MSSE17-1 measured by liquid dilution method; format: functional
Enterococcus faecium [10] = assay: Antibacterial activity against Enterococcus faecium EFM17-2 measured by liquid dilution method; format: functional
[11] = tested on: Staphylococcus epidermidis; assay: Antibacterial activity against methicillin-resistant Staphylococcus epidermidis MRSE17-6 measured by liquid dilution method; format: functional
Staphylococcus aureus [12] = assay: Antibacterial activity against vancomycin-intermediate Staphylococcus aureus ATCC 700699 measured by liquid dilution method; format: functional
Enterococcus faecalis [13] = assay: Antibacterial activity against Enterococcus faecalis EFA17-1 measured by liquid dilution method; format: functional
[14] = tested on: Staphylococcus epidermidis; assay: Antibacterial activity against methicillin-resistant Staphylococcus epidermidis MRSE17-4 measured by liquid dilution method; format: functional
Staphylococcus aureus [15] = assay: Antibacterial activity against methicillin-sensitive Staphylococcus aureus MSSA17-2 measured by liquid dilution method; format: functional
Staphylococcus aureus [16] = assay: Antibacterial activity against methicillin-sensitive Staphylococcus aureus MSSA17-3 measured by liquid dilution method; format: functional
[17] = tested on: Staphylococcus epidermidis; assay: Antibacterial activity against methicillin-sensitive Staphylococcus epidermidis MSSE17-2 measured by liquid dilution method; format: functional
Staphylococcus aureus [18] = assay: Antibacterial activity against methicillin-resistant Staphylococcus aureus ATCC 43300 measured by liquid dilution method; format: functional
Staphylococcus aureus [19] = assay: Antibacterial activity against vancomycin-intermediate Staphylococcus aureus ATCC 700788 measured by liquid dilution method; format: functional
[20] = tested on: Staphylococcus epidermidis; assay: Antibacterial activity against methicillin-resistant Staphylococcus epidermidis MRSE17-1 measured by liquid dilution method; format: functional
Staphylococcus aureus [21] = assay: Antibacterial activity against Staphylococcus aureus ATCC 29213 measured by liquid dilution method; format: functional
Staphylococcus aureus [22] = assay: Antibacterial activity against methicillin-sensitive Staphylococcus aureus MSSA17-1 measured by liquid dilution method; format: functional
Staphylococcus aureus [23] = assay: Antibacterial activity against methicillin-resistant Staphylococcus aureus MRSA17-1 measured by liquid dilution method; format: functional
Staphylococcus aureus [24] = assay: Antibacterial activity against methicillin-resistant Staphylococcus aureus ATCC 33591 measured by liquid dilution method; format: functional
Enterococcus faecium [25] = assay: Antibacterial activity against Enterococcus faecium EFM17-1 measured by liquid dilution method; format: functional
[26] = Plasma protein binding in CD-1 mouse plasma incubated for 4 hrs and assessed as unbound fraction at 2 uM measured by LC/MS/MS analysis; format: ADME, cell-free
[27] = Plasma protein binding in CD-1 mouse plasma incubated for 4 hrs at 2 uM measured by LC/MS/MS analysis; format: ADME, cell-free; details: read-out: PPB (converted)

For `CNC1=NC(=O)[C@H]([C@H](C)c2c[nH]c3c(F)cccc23)O1`, the MIC (Staphylococcus aureus [1]) was 1 µg/mL (≈ 3.63 µM), the MIC [2] was 4 µg/mL (≈ 14.5 µM) and the MIC [3] was 0.5 µg/mL (≈ 1.82 µM). For the same compound, the MIC (Staphylococcus aureus [4]) was 1 µg/mL (≈ 3.63 µM), the MIC [5] was 0.25 µg/mL (≈ 0.908 µM) and the MIC (Enterococcus faecalis [6]) was 2 µg/mL (≈ 7.27 µM). It also gave an MIC (Staphylococcus aureus [7]) of 0.5 µg/mL (≈ 1.82 µM), an MIC (Staphylococcus aureus [8]) of 1 µg/mL (≈ 3.63 µM) and an MIC [9] of 2 µg/mL (≈ 7.27 µM). The MIC (Enterococcus faecium [10]) was 4 µg/mL (≈ 14.5 µM), the MIC [11] was 0.5 µg/mL (≈ 1.82 µM) and the MIC (Staphylococcus aureus [12]) was 2 µg/mL (≈ 7.27 µM). The MIC (Enterococcus faecalis [13]) was 2 µg/mL (≈ 7.27 µM), the MIC [14] was 0.5 µg/mL (≈ 1.82 µM) and the MIC (Staphylococcus aureus [15]) was 0.5 µg/mL (≈ 1.82 µM). The MIC (Staphylococcus aureus [16]) was 0.5 µg/mL (≈ 1.82 µM), the MIC [17] was 4 µg/mL (≈ 14.5 µM) and the MIC (Staphylococcus aureus [18]) was 4 µg/mL (≈ 14.5 µM). For the same compound, the MIC (Staphylococcus aureus [19]) was 4 µg/mL (≈ 14.5 µM), the MIC [20] was 0.5 µg/mL (≈ 1.82 µM) and the MIC (Staphylococcus aureus [21]) was 8 µg/mL (≈ 29.1 µM). It also gave an MIC (Staphylococcus aureus [22]) of 1 µg/mL (≈ 3.63 µM), an MIC (Staphylococcus aureus [23]) of 0.5 µg/mL (≈ 1.82 µM) and an MIC (Staphylococcus aureus [24]) of 8 µg/mL (≈ 29.1 µM). It also gave an MIC (Enterococcus faecium [25]) of 2 µg/mL (≈ 7.27 µM).

`CNC1=NC(=O)[C@@H]([C@@H](C)c2c[nH]c3cc(F)ccc23)O1` gave an MIC (Staphylococcus aureus [1]) greater than 128 µg/mL, an MIC [2] greater than 128 µg/mL and an MIC [3] greater than 128 µg/mL. The MIC (Staphylococcus aureus [4]) was greater than 128 µg/mL, the MIC [5] was greater than 128 µg/mL and the MIC (Enterococcus faecalis [6]) was greater than 128 µg/mL. It also gave an MIC (Staphylococcus aureus [7]) greater than 128 µg/mL, an MIC (Staphylococcus aureus [8]) greater than 128 µg/mL and an MIC [9] greater than 128 µg/mL. The MIC (Enterococcus faecium [10]) was greater than 128 µg/mL, the MIC [11] was greater than 128 µg/mL and the MIC (Staphylococcus aureus [12]) was greater than 128 µg/mL. The MIC (Enterococcus faecalis [13]) was greater than 128 µg/mL, the MIC [14] was greater than 128 µg/mL and the MIC (Staphylococcus aureus [15]) was greater than 128 µg/mL. The MIC (Staphylococcus aureus [16]) was greater than 128 µg/mL, the MIC [17] was greater than 128 µg/mL and the MIC (Staphylococcus aureus [18]) was greater than 128 µg/mL. The MIC (Staphylococcus aureus [19]) was greater than 128 µg/mL, the MIC [20] was greater than 128 µg/mL and the MIC (Staphylococcus aureus [21]) was greater than 128 µg/mL. It also gave an MIC (Staphylococcus aureus [22]) greater than 128 µg/mL, an MIC (Staphylococcus aureus [23]) greater than 128 µg/mL and an MIC (Staphylococcus aureus [24]) greater than 128 µg/mL. It also gave an MIC (Enterococcus faecium [25]) greater than 128 µg/mL.

In the case of `CNC1=NC(=O)[C@H]([C@H](C)c2c[nH]c3cccc(C)c23)O1`, the MIC (Staphylococcus aureus [1]) is reported as 1 µg/mL (≈ 3.69 µM), the MIC [2] is reported as 0.25 µg/mL (≈ 0.921 µM) and the MIC [3] is reported as 0.125 µg/mL (≈ 0.461 µM). It also gave an MIC (Staphylococcus aureus [4]) of 0.5 µg/mL (≈ 1.84 µM), an MIC [5] of 0.5 µg/mL (≈ 1.84 µM) and an MIC (Enterococcus faecalis [6]) greater than 128 µg/mL. It also gave an MIC (Staphylococcus aureus [7]) of 0.5 µg/mL (≈ 1.84 µM), an MIC (Staphylococcus aureus [8]) of 0.5 µg/mL (≈ 1.84 µM) and an MIC [9] of 0.125 µg/mL (≈ 0.461 µM). For the same compound, the MIC (Enterococcus faecium [10]) was greater than 128 µg/mL, the MIC [11] was 0.5 µg/mL (≈ 1.84 µM) and the fraction unbound at 4 h, 2 µM [26] was 0.276. It also gave an MIC (Staphylococcus aureus [12]) of 0.5 µg/mL (≈ 1.84 µM), an MIC (Enterococcus faecalis [13]) greater than 128 µg/mL and an MIC [14] of 0.5 µg/mL (≈ 1.84 µM). The MIC (Staphylococcus aureus [15]) was 1 µg/mL (≈ 3.69 µM), the MIC (Staphylococcus aureus [16]) was 0.5 µg/mL (≈ 1.84 µM) and the fraction unbound at 4 h, 2 µM [27] was 0.276. The MIC [17] was 0.25 µg/mL (≈ 0.921 µM), the MIC (Staphylococcus aureus [18]) was 0.5 µg/mL (≈ 1.84 µM) and the MIC (Staphylococcus aureus [19]) was 0.5 µg/mL (≈ 1.84 µM). The MIC [20] was 0.5 µg/mL (≈ 1.84 µM), the MIC (Staphylococcus aureus [21]) was 1 µg/mL (≈ 3.69 µM) and the MIC (Staphylococcus aureus [22]) was 1 µg/mL (≈ 3.69 µM). It also gave an MIC (Staphylococcus aureus [23]) of 0.5 µg/mL (≈ 1.84 µM), an MIC (Staphylococcus aureus [24]) of 1 µg/mL (≈ 3.69 µM) and an MIC (Enterococcus faecium [25]) greater than 128 µg/mL.

`CNC1=NC(=O)[C@@H]([C@@H](C)c2c[nH]c3c(F)cccc23)O1` gave an MIC (Staphylococcus aureus [1]) of 8 µg/mL (≈ 29.1 µM), an MIC [2] greater than 128 µg/mL and an MIC [3] greater than 128 µg/mL. It also gave an MIC (Staphylococcus aureus [4]) of 8 µg/mL (≈ 29.1 µM), an MIC [5] of 1 µg/mL (≈ 3.63 µM) and an MIC (Enterococcus faecalis [6]) greater than 128 µg/mL. For the same compound, the MIC (Staphylococcus aureus [7]) was 8 µg/mL (≈ 29.1 µM), the MIC (Staphylococcus aureus [8]) was 8 µg/mL (≈ 29.1 µM) and the MIC [9] was 32 µg/mL (≈ 116 µM). The MIC (Enterococcus faecium [10]) was greater than 128 µg/mL, the MIC [11] was 2 µg/mL (≈ 7.27 µM) and the MIC (Staphylococcus aureus [12]) was greater than 128 µg/mL. It also gave an MIC (Enterococcus faecalis [13]) greater than 128 µg/mL, an MIC [14] greater than 128 µg/mL and an MIC (Staphylococcus aureus [15]) of 4 µg/mL (≈ 14.5 µM). It also gave an MIC (Staphylococcus aureus [16]) of 4 µg/mL (≈ 14.5 µM), an MIC [17] of 2 µg/mL (≈ 7.27 µM) and an MIC (Staphylococcus aureus [18]) greater than 128 µg/mL. For the same compound, the MIC (Staphylococcus aureus [19]) was greater than 128 µg/mL, the MIC [20] was 4 µg/mL (≈ 14.5 µM) and the MIC (Staphylococcus aureus [21]) was greater than 128 µg/mL. The MIC (Staphylococcus aureus [22]) was 8 µg/mL (≈ 29.1 µM), the MIC (Staphylococcus aureus [23]) was 8 µg/mL (≈ 29.1 µM) and the MIC (Staphylococcus aureus [24]) was greater than 128 µg/mL. The MIC (Enterococcus faecium [25]) was greater than 128 µg/mL.
